One test has as its target KDR (Homo sapiens, UniProt P35968). Kind of test: Human KDR kinase assay (33P-phosphoryl transfer radiometric, KinaseProfiler). Also on record: Human KDR (residues K790-V1356, 55 nM); purchased Eurofins Pharma Discovery Services UK Limited (KinaseProfiler service). The conditions noted are these: biochemical activity; 10 μM ATP.
For the next test, the target named is T1, AXL (Homo sapiens, UniProt P30530).
T1 construct: endogenous in cells; host or cells: A-172 glioblastoma cells (ATCC #CRL-1620)
T1 sequence (P30530 26-894): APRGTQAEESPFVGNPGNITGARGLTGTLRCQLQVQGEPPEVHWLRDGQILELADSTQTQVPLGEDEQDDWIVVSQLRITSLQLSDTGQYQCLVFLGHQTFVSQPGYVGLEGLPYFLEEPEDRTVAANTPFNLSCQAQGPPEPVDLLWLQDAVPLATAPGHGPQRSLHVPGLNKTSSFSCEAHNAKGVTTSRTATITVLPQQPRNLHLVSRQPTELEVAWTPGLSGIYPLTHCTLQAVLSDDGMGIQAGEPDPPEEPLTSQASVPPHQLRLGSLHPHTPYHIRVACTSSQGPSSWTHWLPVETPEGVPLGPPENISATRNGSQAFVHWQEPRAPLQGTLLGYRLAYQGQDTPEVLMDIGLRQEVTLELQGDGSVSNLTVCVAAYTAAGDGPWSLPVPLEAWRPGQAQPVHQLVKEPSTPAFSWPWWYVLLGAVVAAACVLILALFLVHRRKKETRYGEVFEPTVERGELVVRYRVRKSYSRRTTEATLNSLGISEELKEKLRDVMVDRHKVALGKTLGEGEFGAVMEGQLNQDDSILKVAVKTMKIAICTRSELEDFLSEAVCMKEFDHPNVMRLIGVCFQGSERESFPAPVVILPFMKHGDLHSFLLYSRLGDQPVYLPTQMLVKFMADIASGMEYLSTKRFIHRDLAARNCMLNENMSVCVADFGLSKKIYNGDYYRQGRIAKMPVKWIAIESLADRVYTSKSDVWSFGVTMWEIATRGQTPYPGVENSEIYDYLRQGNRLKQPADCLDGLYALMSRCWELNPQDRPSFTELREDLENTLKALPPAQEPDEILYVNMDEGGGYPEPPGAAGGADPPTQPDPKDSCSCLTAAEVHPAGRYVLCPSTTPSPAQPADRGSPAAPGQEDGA
As to the kind of experiment: AXL autophosphorylation ELISA in A-172 cells. Type of test: cell-based. The following applies: cellular activity, Gas6-stimulated, phospho-AXL ELISA. In a few lines:
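Serum-starved (24 h) A-172 glioblastoma cells got an 8-point compound series (0.3% DMSO) for 1 h, then 1 μg/mL human Gas6 for 15 min. Lysate phospho-AXL quantified by ELISA against phospho-AXL standard, normalized to DMSO and reference-inhibitor controls; IC50 by 4-parameter logistic fit.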

Sequence of KDR (P35968 790-1356): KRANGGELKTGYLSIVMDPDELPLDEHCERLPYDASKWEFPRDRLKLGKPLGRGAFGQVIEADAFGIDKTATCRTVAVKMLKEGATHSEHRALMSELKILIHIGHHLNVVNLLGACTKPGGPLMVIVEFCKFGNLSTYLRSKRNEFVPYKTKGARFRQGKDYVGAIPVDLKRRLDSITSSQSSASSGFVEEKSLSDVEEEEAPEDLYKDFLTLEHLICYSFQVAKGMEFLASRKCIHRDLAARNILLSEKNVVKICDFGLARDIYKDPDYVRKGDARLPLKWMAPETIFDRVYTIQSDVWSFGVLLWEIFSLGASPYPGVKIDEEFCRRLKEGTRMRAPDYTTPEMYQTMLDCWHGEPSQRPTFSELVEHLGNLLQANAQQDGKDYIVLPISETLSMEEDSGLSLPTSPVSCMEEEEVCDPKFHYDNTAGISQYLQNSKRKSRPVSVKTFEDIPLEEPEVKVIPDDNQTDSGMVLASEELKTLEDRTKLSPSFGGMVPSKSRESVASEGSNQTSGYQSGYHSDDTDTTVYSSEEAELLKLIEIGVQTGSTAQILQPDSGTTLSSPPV

`Cc1cc(F)cc(C)c1NC(=O)C1(C(=O)Nc2ccc(Oc3ccnc4cc(-c5cnn(C)c5)ccc34)cc2)CC1` [Compound 82, 1-N′-(4-Fluoro-2,6-dimethylphenyl)-1-N-[4-[7-(1-methylpyrazol-4-yl)quinolin-4-yl]oxyphenyl]cyclopropane-1,1-dicarboxamide]: the IC50 against KDR and on AXL was 10 to 100 nM throughout.

These data come from US12503438B2, “Compounds for the treatment of kinase-dependent disorders” (Exelixis, Inc., priority 2019, dated 2025).
